Data from US20090318492A1, “INDOLE COMPOUNDS HAVING C4-ACIDIC SUBSTITUENTS AND USE THEREOF AS PHOSPHOLIPASE-A2 INHIBITORS” (priority 2005, published 2009).
pIC50: −log10 of the molar value.

How the values were obtained:
[1] = target: T1, human group 1B PLA2 (hps PLA2) (Homo sapiens, UniProt P04054); assay: Example 8 fluorimetric PLA2 inhibition assay (PPyrPM), human enzyme; type: biochemical
T1 construct: made in house; host or cells: E. coli
Source text: (§1) In this example, a fluorimetric assay procedure was used to evaluate the indole and indole-related compounds of the invention as inhibitors of group 1B phospholipase A2 (PLA2) from human, mouse and porcine. A description of this assay is found in articles: Leslie, C C and Gelb, M H (2004) Methods in Molecular Biology “Assaying phospholipase A2 activity”, 284:229-242; Singer, A G, et al. (2002) Journal of Biological Chemistry “Interfacial kinetic and binding properties of the complete set of human and mouse groups I, II, V, X, and XII secreted phospholipases A2”, 277:48535-48549, which are incorporated herein as references.
In general, this assay used a phosphatidylmethanol substrate with a pyrene fluorophore on the terminal end of the sn-2 fatty acyl chain. Without being bound by theory, close proximity of the pyrenes from neighboring phospholipids in a phospholipid vesicle caused the spectral properties to change relative to that of monomeric pyrene. Bovine serum albumin was present in the aqueous phase and captured the pyrene fatty acid when it is liberated from the glycerol backbone owing to the PLA2-catalyzed reaction. […] The effect of a given inhibitor and inhibitor concentration on human, mouse and porcine phospholipase was determined. […]
(§2) The following procedure was performed to evaluate the inhibitory potency of the evaluated compounds. • 1. […]

[2] = Example 9 mouse pharmacokinetic study; type: in vivo; details: serum, PO 30 mg/kg vs IV 3 mg/kg, male CD-1 mice
Procedure: The plasma exposure of male CD-1 mice to indole and indole-related test articles (TAs) following intravenous (IV, 3 mg/kg) and oral (PO, 30 mg/kg) routes of administration was measured. This model was used to investigate the bioavailability of indole and indole-related TAs in mouse. Mice were selected for the study since they are an accepted species frequently used in pre-clinical evaluation of drugs intended for human use.
Male CD-1 mice (7-8 weeks old) were obtained from Charles River Laboratories (Wilmington, Mass.). Two groups (N=18 and 27) of male CD-1 mice were used for the study. Upon arrival, the animals were placed on Rodent Diet 5001 (Purina Mills, Inc., St. Louis, Mo.). […]
All animals were weighed on study day (1) and the body weights were recorded and used for dose calculation. […] Clinical observations were recorded as needed.
Analysis of serum samples was performed by LC/MS/MS (Waters Quattro Premier, Milford, Mass.). Areas under curves (AUC) were calculated using Graphpad Prism Version 4. Bioavailability was calculated using the following equation: […]
where AUC0-t=total area under curve at the last measurable time point Based on the serum levels analyzed by LC/MS/MS, the calculated bioavailability of indole and indole-related TAs in CD-1 mice is summarized in Table 4.3.

[3] = target: T2, mouse group 1B PLA2 (mps PLA2) (Mus musculus, UniProt Q9Z0Y2); assay: Example 8 fluorimetric PLA2 inhibition assay (PPyrPM), mouse enzyme; type: biochemical
T2 construct: made in house; host or cells: E. coli
T2 sequence (Q9Z0Y2 23-146): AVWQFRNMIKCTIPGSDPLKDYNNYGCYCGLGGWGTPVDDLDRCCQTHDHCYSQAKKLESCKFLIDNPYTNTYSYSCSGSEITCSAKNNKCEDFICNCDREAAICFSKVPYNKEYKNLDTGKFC
Source text: as §1
In general, this assay used a phosphatidylmethanol substrate with a pyrene fluorophore on the terminal end of the sn-2 fatty acyl chain. Without being bound by theory, close proximity of the pyrenes from neighboring phospholipids in a phospholipid vesicle caused the spectral properties to change relative to that of monomeric pyrene. Bovine serum albumin was present in the aqueous phase and captured the pyrene fatty acid when it is liberated from the glycerol backbone owing to the PLA2-catalyzed reaction. However, a potent inhibitor can inhibit the liberation of pyrene fatty acid from the glycerol backbone. […] The effect of a given inhibitor and inhibitor concentration on human, mouse and porcine phospholipase was determined.
Recombinant human and mouse group 1B PLA2 were cloned and expressed in E. coli as insoluble inclusion bodies. The inclusion bodies were isolated and purified by sonicating cell pellet in lysis buffer (50 mM Tris-HCl pH 7.0, 250 mM NaCl, 0.5% Triton 100), centrifugation at 12,000×g, and washing three times in washing buffer (20 mM Tris-HCl pH 7.0, 250 mM NaCl, 0.5% Triton 100). […]
as §2

T1 sequence (P04054 23-148): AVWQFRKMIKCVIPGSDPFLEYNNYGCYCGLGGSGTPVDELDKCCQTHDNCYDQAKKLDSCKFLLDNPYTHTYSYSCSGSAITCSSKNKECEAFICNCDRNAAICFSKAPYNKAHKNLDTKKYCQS

Compound: Cc1c(C(=O)C(N)=O)c2c(OCC(=O)NS(=O)(=O)CCCC(=O)O)cccc2n1Cc1ccccc1 [ILY-IV-40, 4-[2-(3-Aminooxalyl-1-benzyl-2-methyl-1H-indol-4-yloxy)-acetylsulfamoyl]-butyric acid]
- pIC50 [1]: 6.41
- bioavailability [2]: 0.5%
- pIC50 [3]: 5.87
